Results reported in patent publication US20090042820A1, “Tubulin Binding Anti Cancer Agents And Prodrugs Thereof” (Threshold Pharmaceuticals, Inc., priority 2004, published 2009).
Like-named read-outs stand apart in the source and are kept apart here.

Columns and labels:
H460 cells = assay: Alamar Blue antiproliferation assay, H460 cell line; format: cell-based, human
Procedure: (§1) To determine the effect of the compounds of the present invention on cell proliferation, the antiproliferative activity of these compounds was tested in a multi-well Alamar Blue based assay (at 2 h and 3 days). Cell growth in the presence and absence of the test compound as tabulated in Table 1 was compared, as measured by a fluorescence plate reader at excitation 550 nm and emission 590 nm (see Biosource International Inc., Tech Application Notes, Use of Alamar Blue in the measurement of Cell Viability and Toxicity, Determining IC50). H460 cells (ATCC HTB-177 ([…]), 4,000 cells/well/200 μl) and LNCap cells (ATCC CRL-1740, 6,000 cells/well/200 μl) were seeded in a 96 well plate in RPMI medium (Invitrogen Corporation, Carlsbad, Calif.). After 24 hours, these plates were divided into 3 groups—Control group, 2 h treatment group and 3 day treatment group.
(§2) In the 2 h treatment group, after 2 h the cells were rinsed to remove the test compound and incubated for 3 days, followed by staining with AlamarBlue. The cells in the 3-day treatment group were incubated for 3 days, followed by staining with AlamarBlue. In the Control group, AlamarBlue was added to the plate at (i) day 0 and (ii) day 3 and measured to establish the control reading. In all the groups, the capacity of the cells to proliferate was measured 6 hours after addition of AlamarBlue by a fluorescence plate reader at excitation 550 nm and emission 590 nm.

[1] = Metabolic stability in mouse liver microsomes; format: in vitro ADME; details: 5 μM, 1 mg/mL protein, NADPH, 37° C.
Procedure: An in vitro assessment of metabolic stability of compounds was performed using commercially available mouse liver microsomes (MLM) containing cytochrome P450 enzymes (Cedra Corp, Austin, Tex.). A solutions (5 μM) of a compound and microsomes (1 mg/mL protein) was prepared. P450 enzymatic reactions were initiated by adding an NADPH solution. Enzymatic reactions were carried out in a thermostated shaking water bath kept at 37° C. Fifty μl of the reaction mixture was withdrawn immediately and 30 minutes after the addition of the NADPH solution and the proteins were precipitated with acetonitrile. The clear supernatant was analyzed by reversed phase LC-MS/MS (Applied Biosystems API-3000 with Hypersil-BDS C18 column and gradient elution), with internal standard area ratio quantification for the amount the compound remaining as shown in table 4.

MES-SA = assay: Alamar Blue antiproliferation assay, MES-SA; format: cell-based; details: 3 Day
MES-SA/DX5 = assay: Alamar Blue antiproliferation assay, MES-SA/DX5; format: cell-based; details: MES-SA/DX5, 3 Day
cancer cell = assay: Cancer cell antiproliferation assay (cell line not stated); format: cell-based; details: summary statement; read-out: GI50 or IC50 in a cancer cell antiproliferation assay
Procedure: In one aspect, the present invention provides a compound of formula (I-VII) having a GI50, GI90, IC50, or IC50 of about 0.001 to about 1000 nM, about 0.01 to about 100 nm, about 0.1 to about 50 nM, and about 1 to about 10 nM in a cancer cell antiproliferation assay. In one embodiment, the present invention provides a compound of formula (I) having a GI50 or IC50 of about 0.01 to about 100 nm, about 0.1 to about 50 nm, and about 1 to about 10 nm in a cancer cell antiproliferation assay. In various embodiments, said antiproliferation assays employ cancer cell including but not limited to gastric, colon, breast, and non-small cell lung cancer. In various embodiments, the […] cancer cell used is MESSA or doxorubicin resistant MESSA/DX5 cell; the colon cancer cell is HT29 cell; the breast cancer cell is T47D cell; and the non-small cell lung cancer cell is H460 cell.
as §1, §2

T47D = assay: Alamar Blue antiproliferation assay, T47D; format: cell-based; details: 3 Day
HT29 = assay: Alamar Blue antiproliferation assay, HT29; format: cell-based; details: HT29, 3 Day
Plasma stability = format: in vitro ADME; details: mouse plasma, 5 μM, 37° C.
Procedure: For an assessment of plasma stability of compounds, commercially available mouse plasma (Bioreclamation, Hicksville, N.Y.) was added to a DMSO solution of a compound, to a concentration of 5 μM. The reaction mixture (50 μl) was withdrawn immediately and after 30 minutes at 37° C., proteins were precipitated with acetonitrile. The clear supernatant was analyzed by reversed phase LC-MS/MS and the amount the compound remaining quantified as shown in table 4.

H460 xenograft = H460 xenograft mouse model; format: in vivo; details: day 21; taxol alone 10 mg/kg daily; treatment began at 150 mm^3 tumor volume
Procedure: Female CB17/SCID mice (purchased from Taconic, Oxnard, Calif.), 7-8 weeks of age, were allowed to acclimatize for at least three days, and handled under pathogen-free conditions. Human non-small cell lung cancer cell line […] was obtained from the American Type Culture Collection. The cell lines were cultured in RPMI 1640 media supplemented with 10% fetal bovine serum. Cells were maintained in a 37° C. incubator with 5% CO2. The H460 cells were harvested from culture and inoculated at 1×10^6 cells/animal in the […] subcutaneous space. […] Taxol was administered approximately 2-3 hours before that of compound 30.
The body weight of each mouse was recorded twice per week (FIG. 1). […] One animal in the treatment group was found dead on day 18, and two were found dead on day 22 in the combination group.
FIG. 2 graphically illustrates the mean tumor volume for each treatment group. Growth of each xenograft was monitored by externally measuring tumors in two dimensions using a digital caliper twice per week. Tumor volume (V) was determined by the following equation: V=(L×W^2)/2, where L is the length and W is the width of a xenograft. Tumor volumes were measured twice weekly. On day 11, the Treated/Control (T/C) ratio was 65% and 52% in the treatment and combination groups, respectively. At the final measurement (day 22), the T/C ratio for the treatment and combination groups respectively were 43% and 19%.

[2] = Homo sapiens, NCI-H460, 2 h treatment, then 3 days incubation, read-out: GI50 (nM) 2 Hour
[3] = Homo sapiens, NCI-H460, 72 h, 3 day treatment, read-out: GI50 (nM) 3 Days

With `COc1cc(C(=O)c2n[nH]c3c(C#N)c(OC)ccc23)cc(OC)c1OC` [Compound 58] the GI50 (H460 cells; [2]) was > 10000 nM, the GI50 (H460 cells; [3]) was 15.8 nM and the “Metabolic stability (MLM, % remaining at 30 min)” value [1] was 28 ± 6%.

With `COc1cc(C(=O)c2n[nH]c3c(C(N)=O)c(OC)ccc23)cc(OC)c1OC` [Compound 60] the GI50 (H460 cells; [2]) was > 1000 nM, the GI50 (H460 cells; [3]) was 25.1 nM and the “Metabolic stability (MLM, % remaining at 30 min)” value [1] was 94 ± 4%.

`COc1cc(C(=O)c2n[nH]c3c(C#CC(C)O)c(OC)ccc23)cc(OC)c1OC` (stereo not drawn) [Compound 66] gave a GI50 (MES-SA; Homo sapiens, 72 h) of 15.8 nM, a GI50 (H460 cells; [3]) of 10 nM and a GI50 (MES-SA/DX5; Homo sapiens, 72 h) of 10 nM. For the same molecule, the “Metabolic stability (MLM, % remaining at 30 min)” value [1] was 88 ± 11%, the IC50 (cancer cell) was 1 to 50 nM and the GI50 (T47D; Homo sapiens, 72 h) was 6.3 nM. For the same molecule, the GI50 (HT29; Homo sapiens, HT-29, 72 h) was 12.6 nM.

Molecule `COc1cc(C(=O)c2n[nH]c3c(C#Cc4ccccn4)c(OC)ccc23)cc(OC)c1OC` [Compound 68] has a GI50 (MES-SA) of 1.6 nM, a GI50 (H460 cells; 3 day treatment, read-out: GI50 (nM) 3 Days) of 1.4 nM and a GI50 (MES-SA/DX5) of 1.9 nM. For the same molecule, the “Metabolic stability (MLM, % remaining at 30 min)” value [1] was 17 ± 4%, the GI50 (T47D) was 1.6 nM and the GI50 (HT29) was 1.6 nM.

In the case of `C#Cc1c(OC)ccc2c(C(=O)c3cc(OC)c(OC)c(OC)c3)n[nH]c12` [Compound 72], the GI50 (MES-SA; Homo sapiens, 72 h) is reported as 1.9 nM, the GI50 (H460 cells; [3]) is reported as 1.3 nM and the GI50 (MES-SA/DX5; Homo sapiens, 72 h) is reported as 3.9 nM. The “Metabolic stability (MLM, % remaining at 30 min)” value [1] was 40 ± 9%, the IC50 (cancer cell) was 1 to 50 nM and the GI50 (T47D; Homo sapiens, 72 h) was 6.3 nM. For the same molecule, the “Plasma stability (% remaining at 30 min)” value (Plasma stability) was 105% and the GI50 (HT29; Homo sapiens, HT-29, 72 h) was 1.6 nM.

With `C#Cc1c(OC)ccc2c(C(=O)c3cc(OC)c(OC)c(OC)c3)nn([C@@H]3OC(CO)[C@@H](O)[C@H](O)C3O)c12` (stereo partly drawn) [Compound 80] the GI50 (H460 cells; [3]) was > 1000 nM.

For `COc1ccc2c(C(=O)c3cc(OC)c(OC)c(OC)c3)n(CO)nc2c1` [Compound 81], the GI50 (H460 cells; [3]) was > 1000 nM.

With `CC(=O)O[C@H]1C(=O)[C@@]2(C)[C@H]([C@H](OC(=O)c3ccccc3)[C@]3(O)C[C@H](OC(=O)[C@H](O)[C@@H](NC(=O)c4ccccc4)c4ccccc4)C(C)=C1C3(C)C)[C@]1(OC(C)=O)CO[C@@H]1C[C@@H]2O` [taxol, paclitaxel, reference compound] the “TIC, tumor volume” value (H460 xenograft) was 56%.
